In patent US9987256B2, “CFTR corrector for the treatment of genetic disorders affecting striated muscle” (UNIVERSITA' DEGLI STUDI DI PADOVA, priority 2012, dated 2018):
Substitutions are numbered along the chain they refer to.

Key:
[1] = target: T1, R98H mutant of alpha-sarcoglycan (Homo sapiens, UniProt Q16586, R98H); test: Western blot rescue of R98H mutant of alpha-sarcoglycan in HEK293 cell model; type: cell-based; conditions: HEK293, 24 hours; for alpha-sarcoglycan protein level (western blot, densitometry), rescue of R98H mutant: A 2 μM
T1 construct: expressed in transfected cells; host or cells: HEK293
T1 sequence (Q16586 24-387 R98H): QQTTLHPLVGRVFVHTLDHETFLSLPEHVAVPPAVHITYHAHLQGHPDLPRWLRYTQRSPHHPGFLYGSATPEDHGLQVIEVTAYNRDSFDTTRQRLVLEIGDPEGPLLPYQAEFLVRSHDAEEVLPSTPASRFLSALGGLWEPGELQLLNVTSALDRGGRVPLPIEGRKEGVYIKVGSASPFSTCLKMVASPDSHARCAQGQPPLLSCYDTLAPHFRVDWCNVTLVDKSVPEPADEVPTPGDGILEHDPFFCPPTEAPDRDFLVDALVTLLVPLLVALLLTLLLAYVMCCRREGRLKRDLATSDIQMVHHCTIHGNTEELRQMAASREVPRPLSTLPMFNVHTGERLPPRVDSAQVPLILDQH
Experimental: (§1) HEK293 cells expressing different α-SG mutants have been treated with the Compounds A, B, C, D, E, F, H, I, Q, R, S and T according to protocols developed in CF studies [Loo and Clarke 2011; Becq et al 2011, Pedemonte et al 2005; Wang et al 2006]. Concentration and time-dependent recovery of treated mutants have been evaluated by Western blotting. The proteasome inhibitor MG132, at the concentration of 10 μM, or DMSO at 1‰ concentration, have been used as positive and negative control, respectively.
In FIG. 1 the result obtained by treating cells expressing the R98H mutant of α-SG for 24 hours with Compound C 5 μM, Compound B 10 μM, Compound E 10 μM, Compound F 10 μM, Compound A 2 μM, Compound D 10 μM are shown. At the end of treatments, cells were lysed and total proteins resolved by SDS-PAGE. Western blotting has been performed by using α-SG specific antibody and β-actin specific antibody, used to normalize loaded proteins (in FIG. 1, upper panel, a representative experiment is shown). The expression of α-SG in different samples has been determined by densitometric analysis of the western blotting experiments and indicated as percentage of the protein present in cells expressing the R98H mutant treated with DMSO (negative control).
In FIG. 4 the result obtained by treating cells expressing the R98H mutant of α-SG for 24 hours with either Compound H 15 μM, Compound I 10 μM, Compound T 15 μM, Compound A 2 μM, or DMSO at 1‰ concentration, used as negative control, are shown. Cells expressing the wild type form of α-sarcoglycan have been used for comparison. At the end of treatments, cells were lysed and total proteins resolved by SDS-PAGE. Western blotting has been performed by using α-SG specific antibody and β-actin specific antibody, used to normalize loaded proteins (in upper panel of FIG. 4, a representative experiment is shown). The expression of α-SG in different samples has been determined by densitometric analysis of the western blotting experiments and indicated as percentage of the protein present in cells expressing the wild type form of α-sarcoglycan. […] The compounds tested induced the recovery of the R98H mutant to levels that in some cases were even greater than those present in HEK cells expressing the wild type protein.
(§2) In FIG. 5 the result obtained by treating cells expressing the R98H mutant of α-SG for 24 hours with either increasing concentration of Compound R (1, 2.5, 5 μM) or DMSO at 1‰ concentration, used as negative control, are shown. Cells expressing the wild type form of α-sarcoglycan have been used for comparison. At the end of treatments, cells were lysed and total proteins resolved by SDS-PAGE. Western blotting has been performed by using α-SG specific antibody and β-actin specific antibody, used to normalize loaded proteins (in upper panel of FIG. 5, a representative experiment is shown). The expression of α-SG in different samples has been determined by densitometric analysis of western blotting experiments and indicated as percentage of the protein present in cells expressing the wild type form of α-sarcoglycan.
as §2, with “6” for “5”, “Q (5, 10 μM), increasing concentration of Compound S (10, 15” for “R (1, 2.5, 5”, “1% o” for “1‰”, “6,” for “5,”

[2] = target: T2, D97G mutant of alpha-sarcoglycan (Homo sapiens, UniProt Q16586, D97G); test: Western blot rescue of D97G mutant of alpha-sarcoglycan in HEK293 cell model; type: cell-based; conditions: FIG. 7; HEK293, 24 hours; E 10 μM, H 15 μM, I 10 μM, Q 10 μM, F 10 μM, R 5 μM, S 15 μM, T 15 μM, A 2 μM; relative to wild type
T2 construct: expressed in transfected cells; host or cells: HEK293
T2 sequence (Q16586 24-387 D97G): T1 sequence (Q16586 24-387 R98H) with D74G, H75R
Experimental: as §1
In FIG. 7 is shown the content of α-sarcoglycan protein present in HEK cells transfected with the D97G mutant of α-SG treated for 24 hours with either Compound E 10 μM, Compound H 15 μM, Compound I 10 μM, Compound Q 10 μM, Compound F 10 μM, Compound R 5 μM, Compound S 15 μM, Compound T 15 μM, Compound A 2 μM, or DMSO at 1‰ concentration, used as negative control, are shown. Cells expressing the wild type form of α-sarcoglycan have been used for comparison. At the end of treatments, cells were lysed and total proteins resolved by SDS-PAGE. Western blotting has been performed by using α-SG specific antibody and β-actin specific antibody, used to normalize loaded proteins. The expression of α-SG in different samples has been determined by densitometric analysis of western blotting experiments and indicated as percentage of the protein present in cells expressing the wild type form of α-sarcoglycan. […] The compounds tested induce the recovery of the D97G mutant that in some cases reached the level present in HEK cells expressing the wild type protein.

[3] = FIG. 6, Compound Q 5, 10 μM, Compound S 10, 15 μM
[4] = FIG. 6, highest concentrations (Q 10 μM, S 15 μM)
[5] = FIG. 1, C 5 μM, B 10 μM, E 10 μM, F 10 μM, D 10 μM, relative to R98H cells treated with DMSO
[6] = FIG. 4, H 15 μM, I 10 μM, T 15 μM, relative to cells expressing wild type

SMILES | alpha-sarcoglycan protein level (western blot, densitometry), rescue of D97G mutant [2] | alpha-sarcoglycan protein level (western blot, densitometry), rescue of R98H mutant [1, 5] | alpha-sarcoglycan protein level (western blot, densitometry), rescue of R98H mutant [1, 6] | also measured
COc1ccccc1Nc1nc(-c2sc(NC(=O)c3ccccc3)nc2C)cs1 [Compound R, N-(2-(2-methoxyphenylamino)-4′-methyl-4,5′-bithiazol-2′-yl)-benzamide] | promote the rescue |  |  | alpha-sarcoglycan protein level, dose dependence of R98H mutant recovery ([1]; FIG. 5, Compound R 1, 2.5, 5 μM): dose dependent recovery; alpha-sarcoglycan protein level of R98H mutant versus wild type protein ([1]; FIG. 5, highest concentration (5 μM)): reached the level of the wild type protein
CC(=O)c1cccc(Nc2nc(-c3sc(NC(=O)c4ccccc4)nc3C)cs2)c1 [Compound Q, N-(2-(3-acetylphenylamino)-4′-methyl-4,5′-bithiazol-2′-yl)-benzamide] | promote the rescue |  |  | alpha-sarcoglycan protein level, dose dependence of R98H mutant recovery [1, 3]: dose dependent recovery; alpha-sarcoglycan protein level of R98H mutant versus wild type protein [1, 4]: reached the level of the wild type protein
COc1ccc(Cl)cc1Nc1nc(-c2sc(NC(=O)C(C)(C)C)nc2C)cs1 [Compound A, N-(2-(5-chloro-2-methoxyphenylamino)-4′-methyl-4,5′-bithiazol-2′-yl)pivalamide] | promote the rescue | promote the rescue | promote the rescue | 
COc1ccc(Cl)cc1Nc1nc(-c2sc(NC(=O)c3ccccc3)nc2C)cs1 [Compound E, N-[2-(5-Chloro-2-methoxy-phenylamino)-4′-methyl-[4,5′]bithiazolyl-2′-yl]-benzamide] | promote the rescue | promote the rescue |  | 
C=Cc1ccc(-c2csc(Nc3ccccc3)n2)cc1 [Compound S, N-phenyl-4-(4-vinylphenyl)thiazol-2-amine] | promote the rescue |  |  | alpha-sarcoglycan protein level, dose dependence of R98H mutant recovery [1, 3]: dose dependent recovery; alpha-sarcoglycan protein level of R98H mutant versus wild type protein [1, 4]: reached the level of the wild type protein
Cc1cc(C)c2c(C)cc(Nc3ccccc3)nc2c1 [Compound H, 4,5,7-trimethyl-N-phenylquinolin-2-amine] | promote the rescue |  | promote the rescue | 
COc1ccc2nc(Nc3nc(=O)c(C)c(C)[nH]3)nc(C)c2c1 [Compound T, 2-(6-methoxy-4-methylquinazolin-2-ylamino)-5,6-dimethylpyrimidin-4(1H)-one] | promote the rescue |  | promote the rescue | 
O=S(=O)(c1ccc(Cl)cc1)N1CCN(c2ccnc3cc(Cl)ccc23)CC1 [Compound F, 7-chloro-4-(4-(4-chlorophenylsulfonyl)piperazin-1-yl)quinoline] | promote the rescue | promote the rescue |  | 
Cc1cc(Nc2ccc(Br)cc2)nc2ccccc12 [Compound I, N-(4-bromophenyl)-4-methylquinolin-2-amine] | promote the rescue |  | promote the rescue | 
